Results as given in patent US9179674B2, “Macrocyclic picolinamide compounds with fungicidal activity” (DOW AGROSCIENCES LLC, priority 2013, dated 2015).
Read-outs that look alike come from different tables or passages of the source.

What was measured:
Puccinia triticina = assay: Wheat Brown Rust fungicidal activity (PUCCRT); assay type: in vivo; details: for pest or weed control at 100 ppm / pest or weed control at 121.5 g/ha: Puccinia triticina; for pest or weed control at 121.5 g/ha: rate 121.5 g/H
Procedure: Technical grades of materials were dissolved in acetone, which were then mixed with nine volumes of water containing 110 ppm Triton X-100. The fungicide solutions were applied onto wheat seedlings using an automated booth sprayer to run-off. All sprayed plants were allowed to air dry prior to further handling. All fungicides were evaluated using the aforementioned method for their activity vs. all target diseases. Wheat leaf blotch and brown rust activity were also evaluated using track spray applications, in which case the fungicides were formulated as EC formulations, containing 0.1% Trycol 5941 in the spray solutions. Wheat plants (variety Yuma) were grown from seed in a greenhouse in 50% mineral soil/50% soil-less Metro mix until the first leaf was fully emerged, with 7-10 seedlings per pot. These plants were inoculated with an aqueous spore suspension of Septoria tritici either prior to or after fungicide treatments. After inoculation the plants were kept in 100% relative humidity (one day in a dark dew chamber followed by two to three days in a lighted dew chamber at 20° C.) to permit spores to germinate and infect the leaf. The plants were then transferred to a greenhouse set at 20° C. for disease to develop. When disease symptoms were fully expressed on the 1st leaves of untreated plants, infection levels were assessed on a scale of 0 to 100 percent disease severity. Percent disease control was calculated using the ratio of disease severity on treated plants relative to untreated plants. Evaluation of Fungicidal Activity: Wheat Brown Rust (Puccinia triticina; Synonym: Puccinia recondite f sp. tritici; Bayer code PUCCRT) Wheat plants (variety Yuma) were grown from seed in a greenhouse in 50% mineral soil/50% soil-less Metro mix until the first leaf was fully emerged, with 7-10 seedlings per pot. These plants were inoculated with an aqueous spore suspension of Puccinia triticina either prior to or after fungicide treatments. After inoculation the plants were kept in a dark dew room at 22° C. with 100% relative humidity overnight to permit spores to germinate and infect the leaf. The plants were then transferred to a greenhouse set at 24° C. for disease to develop. Fungicide formulation, application and disease assessment followed the procedures as described in the Example A.

[1] = system: Mycosphaerella graminicola; Anamorph: Septoria tritici; assay: Leaf Blotch of Wheat fungicidal activity (SEPTTR); assay type: in vivo; details: for pest or weed control at 100 ppm / pest or weed control at 121.5 g/ha: Zymoseptoria tritici; for pest or weed control at 121.5 g/ha: rate 121.5 g/H
Procedure: Evaluation of Fungicidal Activity: Leaf Blotch of Wheat (Mycosphaerella graminicola; Anamorph: Septoria tritici; Bayer code […]) Technical grades of materials were dissolved in acetone, which were then mixed with nine volumes of water containing 110 ppm Triton X-100. The fungicide solutions were applied onto wheat seedlings using an automated booth sprayer to run-off. All sprayed plants were allowed to air dry prior to further handling. All fungicides were evaluated using the aforementioned method for their activity vs. all target diseases. Wheat leaf blotch and brown rust activity were also evaluated using track spray applications, in which case the fungicides were formulated as EC formulations, containing 0.1% Trycol 5941 in the spray solutions. Wheat plants (variety Yuma) were grown from seed in a greenhouse in 50% mineral soil/50% soil-less Metro mix until the first leaf was fully emerged, with 7-10 seedlings per pot. These plants were inoculated with an aqueous spore suspension of Septoria tritici either prior to or after fungicide treatments. After inoculation the plants were kept in 100% relative humidity (one day in a dark dew chamber followed by two to three days in a lighted dew chamber at 20° C.) to permit spores to germinate and infect the leaf. The plants were then transferred to a greenhouse set at 20° C. for disease to develop. When disease symptoms were fully expressed on the 1st leaves of untreated plants, infection levels were assessed on a scale of 0 to 100 percent disease severity. Percent disease control was calculated using the ratio of disease severity on treated plants relative to untreated plants.

[2] = 24 h, 1 Day Protectant, rate 100 ppm, read-out: Disease control PUCCRT 1DP
[3] = 72 h, 3 Day Curative, rate 100 ppm, read-out: Disease control PUCCRT 3DC
[4] = 24 h, 1 Day Protectant, rate 100 ppm, read-out: Disease control SEPTTR 1DP
[5] = 72 h, 3 Day Curative, rate 100 ppm, read-out: Disease control SEPTTR 3DC
[6] = 24 h, 1 Day Protectant, read-out: Disease control PUCCRT 1DP
[7] = 72 h, 3 Day Curative, read-out: Disease control PUCCRT 3DC
[8] = 24 h, 1 Day Protectant, read-out: Disease control SEPTTR 1DP
[9] = 72 h, 3 Day Curative, read-out: Disease control SEPTTR 3DC

SMILES | pest or weed control at 100 ppm (Puccinia triticina; [2]) [%] | pest or weed control at 100 ppm (Puccinia triticina; [3]) [%] | pest or weed control at 100 ppm [1, 4] [%] | pest or weed control at 100 ppm [1, 5] [%] | pest or weed control at 121.5 g/ha (Puccinia triticina; [6]) [%] | pest or weed control at 121.5 g/ha (Puccinia triticina; [7]) [%] | pest or weed control at 121.5 g/ha [1, 8] [%] | pest or weed control at 121.5 g/ha [1, 9] [%] | Disease control PUCCRT 1DP (Puccinia triticina; 1 Day Protectant, rate 100 ppm) | Disease control SEPTTR 1DP ([1]; 1 Day Protectant, rate 100 ppm) | Disease control SEPTTR 3DC ([1]; 3 Day Curative, rate 100 ppm)
COc1ccnc(C(=O)N[C@H]2COC[C@H](CCC(C)C)[C@@H](OC(=O)C3CC3)[C@H](C)OC2=O)c1O [Compound F36] | 80 to 100 | 0 to 80 | 80 to 100 | 80 to 100 | – | – | – | – | – | – | –
COc1ccnc(C(=O)N[C@H]2COC[C@H](CCC(C)C)[C@@H](OCCCC(F)(F)F)[C@H](C)OC2=O)c1O [Compound F35] | 80 to 100 | – | 80 to 100 | 0 to 80 | – | – | – | – | – | – | –
COc1ccnc(C(=O)N[C@H]2COC[C@H](CC3CCCC3)[C@@H](OCC(C)C)[C@H](C)OC2=O)c1OCOC(C)=O [Compound F115] | 80 to 100 | 80 to 100 | 80 to 100 | 80 to 100 | 80 to 100 | 80 to 100 | 80 to 100 | 80 to 100 | – | – | –
CCCCCO[C@@H]1[C@@H](CC2CCCC2)COC[C@H](NC(=O)c2nccc(OC)c2OCOC(C)=O)C(=O)O[C@H]1C [Compound F116] | 80 to 100 | 80 to 100 | 80 to 100 | 80 to 100 | 80 to 100 | 80 to 100 | 80 to 100 | 80 to 100 | – | – | –
COc1ccnc(C(=O)N[C@H]2COC[C@H](Cc3cc(F)c(F)c(F)c3)[C@@H](OCC(C)C)[C@H](C)OC2=O)c1OC(C)=O [Compound F72] | 80 to 100 | 80 to 100 | 80 to 100 | 80 to 100 | 80 to 100 | 80 to 100 | 80 to 100 | 80 to 100 | – | – | –
COc1ccnc(C(=O)N[C@H]2COC[C@H](CCC(C)C)[C@@H](OCC(C)C)[C@H](C)OC2=O)c1O [Compound F34] | 80 to 100 | 80 to 100 | 80 to 100 | 80 to 100 | – | – | – | – | – | – | –
COc1ccnc(C(=O)N[C@H]2COC[C@H](Cc3ccc(C)cc3)[C@@H](Oc3ccccc3)[C@H](C)OC2=O)c1OC(C)=O [Compound F63] | 80 to 100 | 80 to 100 | 80 to 100 | 80 to 100 | 80 to 100 | 0 to 80 | 80 to 100 | 80 to 100 | – | – | –
COc1ccnc(C(=O)N[C@H]2COC[C@H](CCc3ccccc3)[C@@H](OC(=O)C3CC3)[C@H](C)OC2=O)c1O [Compound F15] | 80 to 100 | 0 to 80 | 80 to 100 | 80 to 100 | – | – | – | – | – | – | –
COc1ccnc(C(=O)N[C@H]2COC[C@H](Cc3ccc(C(F)(F)F)cc3)[C@@H](OCC(C)C)[C@H](C)OC2=O)c1OC(C)=O [Compound F65] | 80 to 100 | 80 to 100 | 80 to 100 | 80 to 100 | 80 to 100 | 0 to 80 | 80 to 100 | 80 to 100 | – | – | –
COc1ccnc(C(=O)N[C@H]2COC[C@H](CC(F)(F)F)[C@@H](OCC(C)C)[C@H](C)OC2=O)c1O [Compound F32] | 80 to 100 | 0 to 80 | 80 to 100 | 0 to 80 | – | – | – | – | – | – | –
COc1ccnc(C(=O)N[C@H]2COC[C@H](Cc3ccc(C(F)(F)F)cc3)[C@@H](OCC(C)C)[C@H](C)OC2=O)c1O [Compound F30] | – | – | – | – | – | – | – | – | A (80-100) | A (80-100) | B (More than 0-Less than 80)
